Laboratory results: patent publication US10106538B2, “Inhibitors of protein kinases” (PRINCETON DRUG DISCOVERY INC, priority 2015, dated 2018)

Assays:
Assay in all cases: Off-chip Mobility Shift Assay (MSA) kinase inhibition
Type in all cases: biochemical
DDR1 = molecular target: T1, DDR1 (Homo sapiens, UniProt Q08345)
T1 construct: purchased Carna Biosciences
Method in brief: (§1)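 Compound, substrate/ATP/metal and kinase were mixed in 20 mM HEPES, 0.01% Triton X100, 2 mM DTT, pH 7.5 and incubated 1 or 5 h (kinase-dependent) at room temperature. Product and substrate peptides were separated on LabChip; inhibition derived from P/(P+S) relative to complete-reaction and enzyme-free controls.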

FLT4 = molecular target: T2, FLT4 (Homo sapiens, UniProt P35916); conditions: inhibitor concentration 1 μM
T2 construct: purchased Carna Biosciences
Method in brief: as §1

FYN(isoform b) = molecular target: T3, FYN(isoform b) (Homo sapiens, UniProt P06241)
T3 construct: purchased Carna Biosciences
Method in brief: as §1

MAP2K6 = molecular target: T4, MAP2K6 (Homo sapiens, UniProt P52564); conditions: inhibitor concentration 1 μM
T4 construct: purchased Carna Biosciences
Method in brief: as §1

MST1 = molecular target: T5, MST1 (Homo sapiens, UniProt Q13043)
T5 construct: purchased Carna Biosciences
T5 sequence (Q13043 1-487): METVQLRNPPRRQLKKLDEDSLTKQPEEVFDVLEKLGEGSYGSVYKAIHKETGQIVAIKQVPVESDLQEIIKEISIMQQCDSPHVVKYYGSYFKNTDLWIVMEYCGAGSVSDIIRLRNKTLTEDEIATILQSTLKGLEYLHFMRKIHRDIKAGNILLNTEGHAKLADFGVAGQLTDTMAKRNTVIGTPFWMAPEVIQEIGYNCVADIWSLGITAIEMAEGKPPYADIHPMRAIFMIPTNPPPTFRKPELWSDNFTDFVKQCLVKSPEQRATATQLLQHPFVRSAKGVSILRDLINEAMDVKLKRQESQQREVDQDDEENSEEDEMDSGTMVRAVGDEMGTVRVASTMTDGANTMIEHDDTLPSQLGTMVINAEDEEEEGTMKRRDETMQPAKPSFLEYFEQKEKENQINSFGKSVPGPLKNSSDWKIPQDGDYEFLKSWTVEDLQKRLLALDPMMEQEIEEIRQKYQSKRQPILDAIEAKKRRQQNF
Method in brief: as §1

MST4 = molecular target: T6, MST4 (Homo sapiens, UniProt Q9P289); conditions: inhibitor concentration 1 μM
T6 construct: purchased Carna Biosciences
Method in brief: as §1

PKD1 = molecular target: T7, PKD1 (Homo sapiens, UniProt Q15139); conditions: inhibitor concentration 1 μM
T7 construct: purchased Carna Biosciences
Method in brief: as §1

RET(G691S) = molecular target: T8, RET(G691S) (Homo sapiens, UniProt P07949, G691S)
T8 construct: purchased Carna Biosciences
Method in brief: as §1

WNK3 = molecular target: T9, WNK3 (Homo sapiens, UniProt Q9BYP7); conditions: inhibitor concentration 1 μM
T9 construct: purchased Carna Biosciences
Method in brief: as §1

YES(T348I) = molecular target: T10, YES(T348I) (Homo sapiens, UniProt P07947, T348I); conditions: inhibitor concentration 1 μM
T10 construct: purchased Carna Biosciences
Method in brief: as §1

[1] = inhibitor concentration 0.01 μM

T8 sequence (P07949 29-1114 G691S): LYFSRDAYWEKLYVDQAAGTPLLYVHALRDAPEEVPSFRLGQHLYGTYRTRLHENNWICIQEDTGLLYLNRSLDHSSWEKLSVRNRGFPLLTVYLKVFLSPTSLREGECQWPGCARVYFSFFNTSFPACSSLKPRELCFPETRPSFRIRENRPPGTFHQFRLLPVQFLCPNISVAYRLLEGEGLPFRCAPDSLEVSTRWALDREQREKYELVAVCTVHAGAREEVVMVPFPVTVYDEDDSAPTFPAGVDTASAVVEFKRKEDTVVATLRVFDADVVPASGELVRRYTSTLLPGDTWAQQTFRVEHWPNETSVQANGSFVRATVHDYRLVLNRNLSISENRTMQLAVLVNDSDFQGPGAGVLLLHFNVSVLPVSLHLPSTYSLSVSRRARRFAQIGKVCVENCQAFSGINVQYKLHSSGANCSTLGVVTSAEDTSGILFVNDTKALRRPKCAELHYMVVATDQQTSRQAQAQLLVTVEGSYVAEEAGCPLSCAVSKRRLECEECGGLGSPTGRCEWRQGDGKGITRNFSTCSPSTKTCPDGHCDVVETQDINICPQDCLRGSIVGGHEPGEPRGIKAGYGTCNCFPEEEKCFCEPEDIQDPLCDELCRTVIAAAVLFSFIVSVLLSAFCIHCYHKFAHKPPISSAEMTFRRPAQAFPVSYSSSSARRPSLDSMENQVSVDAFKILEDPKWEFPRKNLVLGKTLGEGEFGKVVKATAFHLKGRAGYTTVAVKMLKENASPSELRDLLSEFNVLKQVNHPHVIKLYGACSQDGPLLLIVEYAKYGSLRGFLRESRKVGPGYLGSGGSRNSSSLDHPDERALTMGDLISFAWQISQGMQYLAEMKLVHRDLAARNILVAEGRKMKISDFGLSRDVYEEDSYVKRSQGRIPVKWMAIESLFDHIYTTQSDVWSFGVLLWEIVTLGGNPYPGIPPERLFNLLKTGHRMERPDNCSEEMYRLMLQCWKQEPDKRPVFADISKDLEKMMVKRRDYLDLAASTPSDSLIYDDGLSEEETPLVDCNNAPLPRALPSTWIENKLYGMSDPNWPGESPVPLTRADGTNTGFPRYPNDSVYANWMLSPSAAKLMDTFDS
T3 sequence (P06241 1-534 isoform P06241-2): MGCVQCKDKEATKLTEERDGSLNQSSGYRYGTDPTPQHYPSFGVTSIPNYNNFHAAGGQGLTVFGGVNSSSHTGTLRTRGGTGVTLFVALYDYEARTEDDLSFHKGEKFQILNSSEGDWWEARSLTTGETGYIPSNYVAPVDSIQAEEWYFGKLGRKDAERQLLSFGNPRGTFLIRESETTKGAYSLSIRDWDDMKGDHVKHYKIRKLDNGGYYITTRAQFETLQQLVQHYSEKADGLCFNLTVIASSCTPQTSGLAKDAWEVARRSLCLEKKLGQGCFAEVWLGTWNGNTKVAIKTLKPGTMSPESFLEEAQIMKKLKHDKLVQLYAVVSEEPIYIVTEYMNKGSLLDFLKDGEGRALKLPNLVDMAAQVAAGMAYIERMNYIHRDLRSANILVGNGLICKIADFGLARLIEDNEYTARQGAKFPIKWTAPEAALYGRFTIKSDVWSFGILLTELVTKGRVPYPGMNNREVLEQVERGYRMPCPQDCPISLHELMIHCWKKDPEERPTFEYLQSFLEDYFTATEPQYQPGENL
T1 sequence (Q08345 19-913): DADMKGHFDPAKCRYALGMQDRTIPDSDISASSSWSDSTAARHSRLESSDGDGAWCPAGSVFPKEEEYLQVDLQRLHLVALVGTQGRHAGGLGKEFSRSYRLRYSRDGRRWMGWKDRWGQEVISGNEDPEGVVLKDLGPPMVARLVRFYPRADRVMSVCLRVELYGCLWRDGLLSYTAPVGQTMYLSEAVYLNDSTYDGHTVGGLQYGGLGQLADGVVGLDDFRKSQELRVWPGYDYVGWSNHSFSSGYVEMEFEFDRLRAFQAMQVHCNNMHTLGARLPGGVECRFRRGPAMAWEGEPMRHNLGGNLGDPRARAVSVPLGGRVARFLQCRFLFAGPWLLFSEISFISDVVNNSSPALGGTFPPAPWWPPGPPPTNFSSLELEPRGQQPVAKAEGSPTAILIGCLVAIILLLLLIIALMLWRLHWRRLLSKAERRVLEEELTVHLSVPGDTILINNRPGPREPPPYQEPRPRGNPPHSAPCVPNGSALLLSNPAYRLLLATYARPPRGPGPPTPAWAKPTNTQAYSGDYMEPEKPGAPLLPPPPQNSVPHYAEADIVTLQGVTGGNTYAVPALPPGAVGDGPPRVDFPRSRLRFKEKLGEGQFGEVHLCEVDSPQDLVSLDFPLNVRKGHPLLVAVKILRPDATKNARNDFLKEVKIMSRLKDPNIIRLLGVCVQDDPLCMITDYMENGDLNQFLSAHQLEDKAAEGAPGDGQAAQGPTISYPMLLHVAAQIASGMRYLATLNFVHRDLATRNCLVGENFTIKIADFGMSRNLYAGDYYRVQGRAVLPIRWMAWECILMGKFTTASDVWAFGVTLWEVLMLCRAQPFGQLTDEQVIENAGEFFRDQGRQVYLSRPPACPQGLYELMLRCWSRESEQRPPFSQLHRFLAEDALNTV
T4 sequence (P52564 whole entry): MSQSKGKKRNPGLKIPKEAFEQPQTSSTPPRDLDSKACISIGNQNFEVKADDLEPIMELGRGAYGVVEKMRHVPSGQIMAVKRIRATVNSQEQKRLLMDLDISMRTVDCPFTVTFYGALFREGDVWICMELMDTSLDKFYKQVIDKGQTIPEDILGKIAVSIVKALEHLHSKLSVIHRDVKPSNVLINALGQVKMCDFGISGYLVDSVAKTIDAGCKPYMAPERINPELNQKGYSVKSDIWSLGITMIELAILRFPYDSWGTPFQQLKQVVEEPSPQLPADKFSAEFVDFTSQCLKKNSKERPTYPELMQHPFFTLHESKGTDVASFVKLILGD
T9 sequence (Q9BYP7 whole entry): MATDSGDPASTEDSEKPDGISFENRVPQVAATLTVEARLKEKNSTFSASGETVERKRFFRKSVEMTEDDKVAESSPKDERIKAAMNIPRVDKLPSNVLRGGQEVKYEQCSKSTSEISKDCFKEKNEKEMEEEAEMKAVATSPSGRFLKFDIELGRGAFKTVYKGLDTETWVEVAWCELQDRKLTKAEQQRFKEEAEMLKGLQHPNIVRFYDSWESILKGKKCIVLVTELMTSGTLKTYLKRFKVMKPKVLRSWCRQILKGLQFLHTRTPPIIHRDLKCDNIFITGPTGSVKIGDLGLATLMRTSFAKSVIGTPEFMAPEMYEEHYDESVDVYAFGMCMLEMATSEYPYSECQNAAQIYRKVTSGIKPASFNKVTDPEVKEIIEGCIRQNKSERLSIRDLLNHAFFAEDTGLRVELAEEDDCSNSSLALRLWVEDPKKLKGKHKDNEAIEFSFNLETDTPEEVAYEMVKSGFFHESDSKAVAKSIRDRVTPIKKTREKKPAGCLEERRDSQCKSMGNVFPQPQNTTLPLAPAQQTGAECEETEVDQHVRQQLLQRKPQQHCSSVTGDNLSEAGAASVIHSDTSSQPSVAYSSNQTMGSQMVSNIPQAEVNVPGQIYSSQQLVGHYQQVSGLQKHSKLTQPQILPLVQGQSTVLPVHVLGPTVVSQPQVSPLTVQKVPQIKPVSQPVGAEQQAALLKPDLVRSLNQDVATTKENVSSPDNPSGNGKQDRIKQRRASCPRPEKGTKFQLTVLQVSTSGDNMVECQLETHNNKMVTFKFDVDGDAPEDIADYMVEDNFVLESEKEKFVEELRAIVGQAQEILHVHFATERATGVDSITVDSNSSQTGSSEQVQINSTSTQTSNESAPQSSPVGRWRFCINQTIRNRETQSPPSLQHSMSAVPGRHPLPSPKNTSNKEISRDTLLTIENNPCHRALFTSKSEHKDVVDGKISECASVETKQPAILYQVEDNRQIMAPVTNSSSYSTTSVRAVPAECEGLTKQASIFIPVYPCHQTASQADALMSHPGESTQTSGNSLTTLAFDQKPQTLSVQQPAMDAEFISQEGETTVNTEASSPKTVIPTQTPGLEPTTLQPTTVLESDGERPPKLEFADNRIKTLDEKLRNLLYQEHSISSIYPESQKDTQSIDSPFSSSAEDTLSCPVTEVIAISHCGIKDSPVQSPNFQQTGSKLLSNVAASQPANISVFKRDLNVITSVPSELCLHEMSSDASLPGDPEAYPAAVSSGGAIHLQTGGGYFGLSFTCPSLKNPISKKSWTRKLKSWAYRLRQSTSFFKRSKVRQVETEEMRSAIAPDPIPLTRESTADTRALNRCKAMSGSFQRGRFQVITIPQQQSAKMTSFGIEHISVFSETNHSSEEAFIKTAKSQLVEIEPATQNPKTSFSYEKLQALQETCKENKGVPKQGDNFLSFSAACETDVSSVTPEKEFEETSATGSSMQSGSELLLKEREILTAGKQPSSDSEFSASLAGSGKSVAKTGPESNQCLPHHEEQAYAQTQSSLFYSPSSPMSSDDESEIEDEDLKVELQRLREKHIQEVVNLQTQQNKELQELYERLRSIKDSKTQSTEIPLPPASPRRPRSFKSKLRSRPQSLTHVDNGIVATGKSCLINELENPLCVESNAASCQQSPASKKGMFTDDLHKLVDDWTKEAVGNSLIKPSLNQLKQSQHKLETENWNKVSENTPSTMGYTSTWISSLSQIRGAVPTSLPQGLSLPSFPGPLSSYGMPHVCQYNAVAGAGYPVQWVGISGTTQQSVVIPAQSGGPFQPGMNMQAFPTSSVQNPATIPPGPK
T6 sequence (Q9P289 whole entry): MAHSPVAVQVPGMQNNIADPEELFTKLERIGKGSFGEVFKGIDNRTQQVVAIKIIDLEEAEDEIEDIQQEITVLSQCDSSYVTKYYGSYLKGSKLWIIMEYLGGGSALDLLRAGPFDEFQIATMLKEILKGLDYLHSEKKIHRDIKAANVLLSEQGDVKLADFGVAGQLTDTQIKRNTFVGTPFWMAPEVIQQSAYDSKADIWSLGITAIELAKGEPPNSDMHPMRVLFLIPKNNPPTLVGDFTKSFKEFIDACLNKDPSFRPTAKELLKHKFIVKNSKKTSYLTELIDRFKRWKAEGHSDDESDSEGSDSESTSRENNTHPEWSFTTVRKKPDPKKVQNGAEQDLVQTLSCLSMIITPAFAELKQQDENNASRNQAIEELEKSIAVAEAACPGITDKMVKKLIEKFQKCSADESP

## O=C(c1c(F)ccc(NS(=O)(=O)CCCO)c1F)c1c[nH]c2ncc(-c3ccc(Cl)cc3)cc12 [200-17, N-[3-[5-(4-chlorophenyl)-1H-pyrrolo[2,3-b]pyridine-3-carbonyl]-2,4-difluorophenyl]-3-hydroxypropane-1-sulfonamide]
DDR1; [1]
  inhibition at 0.01 µM: < 30%
DDR1; inhibitor concentration 0.1 μM
  inhibition at 0.1 µM: > 50%
DDR1; inhibitor concentration 1 μM
  inhibition at 1 µM: > 50%
FLT4
  inhibition at 1 µM: > 50%
FYN(isoform b); [1]
  inhibition at 0.01 µM: < 30%
FYN(isoform b); inhibitor concentration 0.1 μM
  inhibition at 0.1 µM: < 50%
FYN(isoform b); inhibitor concentration 1 μM
  inhibition at 1 µM: > 50%
MAP2K6
  inhibition at 1 µM: < 50%
MST1; [1]
  inhibition at 0.01 µM: < 30%
MST1; inhibitor concentration 0.1 μM
  inhibition at 0.1 µM: > 50%
MST1; inhibitor concentration 1 μM
  inhibition at 1 µM: > 50%
MST4
  inhibition at 1 µM: < 50%
PKD1
  inhibition at 1 µM: < 50%
RET(G691S); [1]
  inhibition at 0.01 µM: < 30%
RET(G691S); inhibitor concentration 0.1 μM
  inhibition at 0.1 µM: < 50%
RET(G691S); inhibitor concentration 1 μM
  inhibition at 1 µM: > 50%
WNK3
  inhibition at 1 µM: > 50%
YES(T348I)
  inhibition at 1 µM: > 50%
